Test system: WM3248 melanoma cells, 486 antibodies
Experiment: Reverse phase protein arrays (RPPA);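 as to RPPA ACC1.R.C: ratio of treated to vehicle (0 µM) normalized linear protein signal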;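 as to RPPA AMPK.a2 pS345.R.V: ratio of treated to vehicle (0 µM) normalized linear protein signal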;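 as to RPPA AMPKa pT172.R.C: ratio of treated to vehicle (0 µM) normalized linear protein signal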;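 as to RPPA ASNS.R.V: ratio of treated to vehicle (0 µM) normalized linear protein signal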;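 as to RPPA Akt1.R.V: ratio of treated to vehicle (0 µM) normalized linear protein signal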;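 as to RPPA Atg5.R.C: ratio of treated to vehicle (0 µM) normalized linear protein signal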;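 as to RPPA Bim.R.V: ratio of treated to vehicle (0 µM) normalized linear protein signal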
Format: cell-based, Human
Conditions: 5 uM
Text: Pellets were snap frozen in liquid nitrogen and shipped to MD Anderson Cancer Center core RPPA facility for RPPA analysis (Table S5). Three biological replicates for each sample were generated.
Nomenclatures on the RPPA heatmaps: name_of_antibody.species_of_antibody.status_of_antibody. V - antibody validated; C - validation of antibody in progress; Q - antibody nonspecific; E – under evaluation; antibodies raised in M - mouse, G - goat, R - rabbit, or T - rat.

CN(C)c1cccc(Nc2cc(-c3ccccc3)nc(C3CCNCC3)n2)c1 [ARN22089, N1,N1-dimethyl-N3-(6-phenyl-2-(piperidin-4-yl)pyrimidin-4-yl)benzene-1,3-diamine]
RPPA MYH11.R.C Average: 0.914 | RPPA Myosin.IIa.R.C Average: 0.843 | RPPA Myosin.IIa_pS1943.R.V Average: 0.844 | RPPA Myt1.R.C Average: 1.051 | RPPA N.Cadherin.R.V Average: 1.019 | RPPA N.Ras.M.V Average: 1.035 | RPPA NAPSIN.A.R.C Average: 1.080 | RPPA NDRG1_pT346.R.V Average: 0.957 | RPPA NDUFB4.R.V Average: 0.959 | RPPA NRF2.R.C Average: 1.058 | RPPA Notch1.R.V Average: 0.994 | RPPA Notch1.cleaved.R.V Average: 0.989 | RPPA P.Cadherin.R.C Average: 1.050 | RPPA PAI.1.M.V Average: 0.977 | RPPA PAICS.R.C Average: 0.899 | RPPA PAK1.R.V Average: 1.006 | RPPA PAK4.R.V Average: 0.986 | RPPA PAK_pT423_T402.R.C Average: 0.921 | RPPA PAR.R.C Average: 1.327 | RPPA PARG.R.C Average: 1.012 | RPPA PARP.R.V Average: 1.023 | RPPA PAX6.R.V Average: 1.030 | RPPA PAX8.R.C Average: 0.962 | RPPA PCNA.M.C Average: 0.948 | RPPA PD.1.R.V Average: 0.992 | RPPA PD.L1.R.C Average: 1.064 | RPPA PDH.M.V Average: 1.049 | RPPA PDHA1.R.V Average: 1.079 | RPPA PDHK1.R.C Average: 1.057 | RPPA PDK1_pS241.R.V Average: 1.138 | RPPA PEA.15.R.V Average: 0.904 | RPPA PEA.15_pS116.R.V Average: 1.018 | RPPA PERK.R.V Average: 0.925 | RPPA PGM1.R.V Average: 0.979 | RPPA PHGDH.R.C Average: 1.081 | RPPA PHLPP.R.V Average: 0.922 | RPPA PI3K.p85.R.C Average: 0.987 | RPPA PI3K.p110.a.R.C Average: 1.057 | RPPA PI3K.p110.b.M.C Average: 0.980 | RPPA PKA.a.R.V Average: 1.013 | RPPA PKC.a.b.II_pT638_T641.R.V Average: 0.925 | RPPA PKC.b.II_pS660.R.V Average: 1.162 | RPPA PKCa.R.V Average: 1.462 | RPPA PKM2.R.C Average: 0.954 | RPPA PLC.gamma1.R.V Average: 0.970 | RPPA PLC.gamma1_pS1248.R.V Average: 1.060 | RPPA PLC.gamma2_pY759.R.V Average: 0.976 | RPPA PLK1.R.C Average: 0.920 | RPPA PMS2.R.V Average: 0.940 | RPPA PR.R.V Average: 1.032 | RPPA PRAS40.M.C Average: 0.991 | RPPA PRAS40_pT246.R.V Average: 1.028 | RPPA PRC1_pT481.R.C Average: 0.944 | RPPA Paxillin.R.C Average: 0.977 | RPPA Pdcd4.R.C Average: 1.156 | RPPA Porin.M.V Average: 0.936 | RPPA p21.R.C Average: 1.048 | RPPA p27.Kip1.R.C Average: 0.948 | RPPA p27_pT157.R.C Average: 0.943 | RPPA p27_pT198.R.V Average: 1.103 | RPPA p38.MAPK.R.V Average: 1.062 | RPPA p38.MAPK._pT180_Y182.R.V Average: 1.580 | RPPA p38.a.M.V Average: 0.984 | RPPA p44.42.MAPK.R.V Average: 0.980 | RPPA p53.R.C Average: 1.052 | RPPA p70.S6K1.R.V Average: 0.998 | RPPA p70.S6K_pT389.R.V Average: 1.143 | RPPA p90RSK_pT573.R.C Average: 0.930 | RPPA A.Raf.R.V (5W1): 1.057 | RPPA A.Raf_pS299.R.C (5W1): 0.952 | RPPA ACC1.R.C (5W1): 1.201 | RPPA ACC_pS79.R.V (5W1): 1.224 | RPPA ACLY_pS455.R.V (5W1): 1.273 | RPPA ACSL1.R.V (5W1): 0.847 | RPPA ACVRL1.R.C (5W1): 0.930 | RPPA ADAR1.M.V (5W1): 0.910 | RPPA ALKBH5.R.V (5W1): 0.866 | RPPA AMPK.a2_pS345.R.V (5W1): 1.146 | RPPA AMPKa.R.C (5W1): 1.108 | RPPA AMPKa_pT172.R.C (5W1): 2.494 | RPPA AR.R.V (5W1): 1.056 | RPPA ARID1A.R.C (5W1): 0.880 | RPPA ASNS.R.V (5W1): 0.847 | RPPA ATM.R.V (5W1): 1.285 | RPPA ATM_pS1981.R.V (5W1): 0.930 | RPPA ATP5A.M.C (5W1): 0.983 | RPPA ATP5H.R.V (5W1): 0.890 | RPPA ATR.R.V (5W1): 0.910 | RPPA ATRX.R.C (5W1): 1.060 | RPPA ATR_pS428.R.C (5W1): 1.111 | RPPA AceCS1.R.V (5W1): 0.974 | RPPA Akt1.R.V (5W1): 1.150 | RPPA Akt1_pS473.R.V (5W1): 1.251 | RPPA Akt2.R.V (5W1): 1.156 | RPPA Akt2_pS474.R.C (5W1): 1.400 | RPPA Akt.R.V (5W1): 1.121 | RPPA Akt_pS473.R.V (5W1): 1.390 | RPPA Akt_pT308.R.V (5W1): 1.046 | RPPA Ambra1_pS52.R.C (5W1): 0.943 | RPPA Annexin.VII.M.V (5W1): 0.883 | RPPA Atg4B.R.C (5W1): 1.033 | RPPA Atg5.R.C (5W1): 1.001 | RPPA Atg7.R.V (5W1): 0.986 | RPPA Aurora.A.R.C (5W1): 0.575 | RPPA Aurora.ABC_pT288_pT232_pT198.R.C (5W1): 0.881 | RPPA Aurora.B.R.V (5W1): 0.940 | RPPA Axl.R.V (5W1): 1.329 | RPPA B7.H3.R.C (5W1): 0.986 | RPPA B7.H4.R.C (5W1): 1.110 | RPPA B.Raf.R.C (5W1): 1.153 | RPPA BAP1.M.V (5W1): 0.943 | RPPA BCL2A1.R.V (5W1): 1.060 | RPPA BMK1.Erk5_pT218_Y220.R.V (5W1): 0.857 | RPPA BRCA1.M.C (5W1): 0.962 | RPPA BRD4.R.V (5W1): 0.959 | RPPA Bad_pS112.R.V (5W1): 1.171 | RPPA Bak.R.C (5W1): 1.077 | RPPA Bax.R.V (5W1): 0.955 | RPPA Bcl2.R.C (5W1): 0.855 | RPPA Beclin.R.C (5W1): 0.863 | RPPA BiP.GRP78.M.C (5W1): 0.936 | RPPA Bim.R.V (5W1): 1.056 | RPPA X4E.BP1.R.V (5W1): 1.448 | RPPA X4E.BP1_pS65.R.V (5W1): 0.917 | RPPA X14.3.3.zeta.R.V (5W1): 0.934 | RPPA X14.3.3βR.V (5W1): 0.934 | RPPA X53BP1.R.V (5W1): 1.104 | RPPA b.Actin.R.C (5W1): 0.885 | RPPA b.Catenin.R.V (5W1): 0.881 | RPPA b.Catenin_pT41_S45.R.V (5W1): 1.099 | RPPA c.Abl.R.V (5W1): 1.227 | RPPA c.Abl_pY412.R.C (5W1): 1.133 | RPPA c.IAP2.R.C (5W1): 0.965 | RPPA A.Raf.R.V (5W3): 1.155 | RPPA A.Raf_pS299.R.C (5W3): 1.022 | RPPA ACC1.R.C (5W3): 0.834 | RPPA ACC_pS79.R.V (5W3): 0.685 | RPPA ACLY_pS455.R.V (5W3): 0.716 | RPPA ACSL1.R.V (5W3): 0.628 | RPPA ACVRL1.R.C (5W3): 0.953 | RPPA ADAR1.M.V (5W3): 1.141 | RPPA ALKBH5.R.V (5W3): 0.830 | RPPA AMPK.a2_pS345.R.V (5W3): 1.116 | RPPA AMPKa.R.C (5W3): 1.027 | RPPA AMPKa_pT172.R.C (5W3): 0.821 | RPPA AR.R.V (5W3): 1.102 | RPPA ARID1A.R.C (5W3): 1.193 | RPPA ASNS.R.V (5W3): 1.291 | RPPA ATM.R.V (5W3): 1.157 | RPPA ATM_pS1981.R.V (5W3): 0.939 | RPPA ATP5A.M.C (5W3): 0.233 | RPPA ATP5H.R.V (5W3): 0.791 | RPPA ATR.R.V (5W3): 0.960 | RPPA ATRX.R.C (5W3): 1.213 | RPPA ATR_pS428.R.C (5W3): 1.112 | RPPA AceCS1.R.V (5W3): 0.718 | RPPA Akt1.R.V (5W3): 0.726 | RPPA Akt1_pS473.R.V (5W3): 0.998 | RPPA Akt2.R.V (5W3): 0.876 | RPPA Akt2_pS474.R.C (5W3): 1.140 | RPPA Akt.R.V (5W3): 0.848 | RPPA Akt_pS473.R.V (5W3): 1.107
